System: MDA-MB-231 cells
Assay: Cell proliferation assay (CellTiter-Glo), MDA-MB-231
Assay type: cell-based
Conditions: 72 h treatment, Celltiter-Glo luminescence
Experimental: Example 238: Cell Proliferation Assay
MDA-MB-231 and EVSA-T cells (10000 cells/well) were plated onto 96-well plates (Corning, Cat #3917) in 95 μL of medium (RPMI-1640 containing 10% FBS and MEM containing 10% FBS, respectively). Compounds with various concentrations ([…]) were added to the wells. After treatment for 72 h, 30 μL of Celltiter-Glo reagent (Promega, Cat #G7573) was added and incubated at room temperature for 15 min, then the luminescent signal was determined using a microplate reader (Biotek, SynergyH1). The inhibitor dose-response curves were analyzed using normalized IC50 regression curve fitting with control based normalization.

| Compound | IC50 (Homo sapiens, MDA-MB-231, 72 h) [µM] | IC50 [µM] |
| --- | --- | --- |
| C[C@@H]1CN(CC(=O)N2CC(C)(C)c3c2cc(Cc2ccc(F)cc2)c2nccnc32)[C@@H](CN2CCOC[C@H]2C)CN1 [Example 26, 1-(5-(4-fluorobenzyl)-9,9-dimethyl-8,9-dihydro-7H-pyrrolo[3,2-f]quinoxalin-7-yl)-2-((2R,5R)-5-methyl-2-(((R)-3-methylmorpholino)methyl)piperazin-1-yl)ethan-1-one] | 0.18 |  |
| Cc1nc(C)c(Cc2cc3c(n4ncnc24)C(C)(C)CN3C(=O)CN2C[C@@H](C)NC[C@@H]2CN2CCOC[C@H]2C)s1 [Compound 158, 1-(4-((2,4-dimethylthiazol-5-yl)methyl)-8,8-dimethyl-7,8-dihydro-6H-pyrrolo[2,3-e][1,2,4]triazolo[1,5-a]pyridin-6-yl)-2-((2R,5R)-5-methyl-2-(((R)-3-methylmorpholino)methyl)piperazin-1-yl)ethan-1-one] | 0.72 |  |
| C[C@@H]1CN(CC(=O)N2CC(C)(C)c3c2cc(Cc2ccc(F)cc2)c2nn(CC(C)(C)O)c(=O)n32)[C@@H](CN2C3CCC2COC3)CN1 [Compound 276, 6-(2-((2R,5R)-2-((3-oxa-8-azabicyclo[3.2.1]octan-8-yl)methyl)-5-methylpiperazin-1-yl)acetyl)-4-(4-fluorobenzyl)-2-(2-hydroxy-2-methylpropyl)-8,8-dimethyl-2,6,7,8-tetrahydro-1H-pyrrolo[2,3-e][1,2,4]triazolo[4,3-a]pyridin-1-one] | 0.39 |  |
| CCc1ncc2c(Cc3ccc(F)cc3)cc3c(n12)C(C)(C)CN3C(=O)CN1C[C@@H](C)NC[C@@H]1CN1CCOC[C@H]1C [Example 4, 1-(1-ethyl-4-(4-fluorobenzyl)-8,8-dimethyl-7,8-dihydro-6H-imidazo[1,5-a]pyrrolo[2,3-e]pyridin-6-yl)-2-((2R,5R)-5-methyl-2-(((R)-3-methylmorpholino)methyl)piperazin-1-yl)ethan-1-one] | 0.097 |  |
| C[C@@H]1CN(CC(=O)N2CC(C)(C)c3c2cc(Cc2ccc(F)cc2)c2nc(C(F)(F)F)cn32)[C@@H](CN2[C@H](C)COC[C@@H]2C)CN1 [Compound 173, 2-((2R,5R)-2-(((3S,5R)-3,5-dimethylmorpholino)methyl)-5-methylpiperazin-1-yl)-1-(4-(4-fluorobenzyl)-8,8-dimethyl-2-(trifluoromethyl)-7,8-dihydro-6H-imidazo[1,2-a]pyrrolo[2,3-e]pyridin-6-yl)ethan-1-one] | 0.53 |  |
| C[C@@H]1CN(CC(=O)N2CC(C)(C)c3c2cc(Cc2ccc(F)cc2F)c2nncn32)[C@@H](CN2CCOC[C@H]2C)CN1 [Compound 155, 1-(4-(2,4-difluorobenzyl)-8,8-dimethyl-7,8-dihydro-6H-pyrrolo[2,3-e][1,2,4]triazolo[4,3-a]pyridin-6-yl)-2-((2R,5R)-5-methyl-2-(((R)-3-methylmorpholino)methyl)piperazin-1-yl)ethan-1-one] | 0.72 |  |
| C[C@@H]1CN(CC(=O)N2CC(C)(C)c3c2cc(Cc2ccc(F)cc2)c2nc(=O)[nH]n32)[C@@H](CN2CCOC[C@H]2C)CN1 [Compound 131, 4-(4-fluorobenzyl)-8,8-dimethyl-6-(2-((2R,5R)-5-methyl-2-(((R)-3-methylmorpholino)methyl)piperazin-1-yl)acetyl)-7,8-dihydro-1H-pyrrolo[2,3-e][1,2,4]triazolo[1,5-a]pyridin-2(6H)-one] | 2.74 |  |
| C[C@@H]1CN(CC(=O)N2CC(C)(C)c3c2cc(Cc2ccc(F)cc2)c2ncsc32)[C@@H](CN2CCOC[C@H]2C)CN1 [Example 27, 1-(4-(4-fluorobenzyl)-8,8-dimethyl-7,8-dihydro-6H-thiazolo[5,4-e]indol-6-yl)-2-((2R,5R)-5-methyl-2-(((R)-3-methylmorpholino)methyl)piperazin-1-yl)ethan-1-one] | 0.26 |  |
| CC(C)c1ncc2c(Cc3ccc(F)cc3)cc3c(n12)C(C)(C)CN3C(=O)CN1C[C@@H](C)NC[C@@H]1CN1CCOC[C@H]1C [Example 5, 1-(4-(4-fluorobenzyl)-1-isopropyl-8,8-dimethyl-7,8-dihydro-6H-imidazo[1,5-a]pyrrolo[2,3-e]pyridin-6-yl)-2-((2R,5R)-5-methyl-2-(((R)-3-methylmorpholino)methyl)piperazin-1-yl)ethan-1-one] | 0.16 |  |
| C[C@@H]1CN(CC(=O)N2CC(C)(C)c3c2cc(Cc2ccc(F)cc2)c2nn(C4CNC4)c(=O)n32)[C@@H](CN2CCOC[C@H]2C)CN1 [Compound 249, 2-(azetidin-3-yl)-4-(4-fluorobenzyl)-8,8-dimethyl-6-(2-((2R,5R)-5-methyl-2-(((R)-3-methylmorpholino)methyl)piperazin-1-yl)acetyl)-2,6,7,8-tetrahydro-1H-pyrrolo[2,3-e][1,2,4]triazolo[4,3-a]pyridin-1-one] | 0.041 |  |
| C[C@@H]1CN(CC(=O)N2CC(C)(C)c3c2cc(Cc2ccc(F)cc2)c2ncnn32)[C@@H](CN2CCC(F)(F)C[C@H]2C)CN1 [Compound 75, 2-((2R,5R)-2-(((R)-4,4-difluoro-2-methylpiperidin-1-yl)methyl)-5-methylpiperazin-1-yl)-1-(4-(4-fluorobenzyl)-8,8-dimethyl-7,8-dihydro-6H-pyrrolo[2,3-e][1,2,4]triazolo[1,5-a]pyridin-6-yl)ethan-1-one] | 0.087 |  |
| C[C@@H]1CN(CC(=O)N2CC(C)(C)c3c2cc(N2CCN(C)c4cc(F)ccc42)c2ncnn32)[C@@H](CN2CCOC[C@H]2C)CN1 [Compound 194, 1-(4-(6-fluoro-4-methyl-3,4-dihydroquinoxalin-1(2H)-yl)-8,8-dimethyl-7,8-dihydro-6H-pyrrolo[2,3-e][1,2,4]triazolo[1,5-a]pyridin-6-yl)-2-((2R,5R)-5-methyl-2-(((R)-3-methylmorpholino)methyl)piperazin-1-yl)ethan-1-one] | 0.68 |  |
| C[C@@H]1CN(CC(=O)N2CC(C)(C)c3c2cc(Cc2ccc(F)cc2)c2nc(N4C[C@@H](O)[C@H](O)C4)nn32)[C@@H](CN2CCOC[C@H]2C)CN1 [Compound 188, 1-(2-((3R,4R)-3,4-dihydroxypyrrolidin-1-yl)-4-(4-fluorobenzyl)-8,8-dimethyl-7,8-dihydro-6H-pyrrolo[2,3-e][1,2,4]triazolo[1,5-a]pyridin-6-yl)-2-((2R,5R)-5-methyl-2-(((R)-3-methylmorpholino)methyl)piperazin-1-yl)ethan-1-one] |  | 0.08 |
| C[C@@H]1CN(CC(=O)N2CC(C)(C)c3c2cc(Cc2ccc(F)cc2)c2nn(CC(C)(C)O)c(=O)n32)[C@@H](CN2CC(F)(F)C[C@H]2C)CN1 [Compound 288, 6-(2-((2R,5R)-2-(((R)-4,4-difluoro-2-methylpyrrolidin-1-yl)methyl)-5-methylpiperazin-1-yl)acetyl)-4-(4-fluorobenzyl)-2-(2-hydroxy-2-methylpropyl)-8,8-dimethyl-2,6,7,8-tetrahydro-1H-pyrrolo[2,3-e][1,2,4]triazolo[4,3-a]pyridin-1-one] | 0.029 |  |
| C[C@@H]1CN(CC(=O)N2CC(C)(C)c3c2cc(Cc2ccc(F)cc2)c2nc(NS(C)(=O)=O)nn32)[C@@H](CN2CCOC[C@H]2C)CN1 [Example 15, N-(4-(4-fluorobenzyl)-8,8-dimethyl-6-(2-((2R,5R)-5-methyl-2-(((R)-3-methylmorpholino)methyl)piperazin-1-yl)acetyl)-7,8-dihydro-6H-pyrrolo[2,3-e][1,2,4]triazolo[1,5-a]pyridin-2-yl)methanesulfonamide] | > 10 |  |
| C[C@@H]1CN(CC(=O)N2CC(C)(C)c3c2cc(Cc2ccc(F)cc2F)c2nn(CC(C)(C)O)c(=O)n32)[C@@H](CN2CCOC[C@H]2C)CN1 [Compound 274, 4-(2,4-difluorobenzyl)-2-(2-hydroxy-2-methylpropyl)-8,8-dimethyl-6-(2-((2R,5R)-5-methyl-2-(((R)-3-methylmorpholino)methyl)piperazin-1-yl)acetyl)-2,6,7,8-tetrahydro-1H-pyrrolo[2,3-e][1,2,4]triazolo[4,3-a]pyridin-1-one] | 0.009 |  |
| C[C@@H]1CN(CC(=O)N2CC(C)(C)c3c2cc(Cc2ccc(F)cc2)c2ncnn32)[C@@H](CN2CC3CC2CO3)CN1 (stereo partly drawn) [Compound 78, 2-((2R,5R)-2-((2-oxa-5-azabicyclo[2.2.1]heptan-5-yl)methyl)-5-methylpiperazin-1-yl)-1-(4-(4-fluorobenzyl)-8,8-dimethyl-7,8-dihydro-6H-pyrrolo[2,3-e][1,2,4]triazolo[1,5-a]pyridin-6-yl)ethan-1-one] | 0.12 |  |
| [2H]C([2H])([2H])NC(=O)c1nc2c(Cc3ccc(F)cc3)cc3c(n2n1)C(C)(C)CN3C(=O)CN1C[C@@H](C)NC[C@@H]1CN1CCOC[C@H]1C [Compound 258, 4-(4-fluorobenzyl)-8,8-dimethyl-N-(methyl-d3)-6-(2-((2R,5R)-5-methyl-2-(((R)-3-methylmorpholino)methyl)piperazin-1-yl)acetyl)-7,8-dihydro-6H-pyrrolo[2,3-e][1,2,4]triazolo[1,5-a]pyridine-2-carboxamide] | 0.195 |  |
| C[C@@H]1CN(CC(=O)N2CC(C)(C)c3c2cc(Cc2ccc(F)cc2)c2cnc(-c4ccc(F)cc4)n32)[C@@H](CN2CCOC[C@H]2C)CN1 [Example 8, 1-(4-(4-fluorobenzyl)-1-(4-fluorophenyl)-8,8-dimethyl-7,8-di hydro-6H-imidazo[1,5-a]pyrrolo[2,3-e]pyridin-6-yl)-2-((2R,5R)-5-methyl-2-(((R)-3-methylmorpholino)methyl)piperazin-1-yl)ethan-1-one] | 0.036 |  |
| C[C@@H]1CN(CC(=O)N2CC(C)(C)c3c2cc(C(F)(F)C24CC(C(F)(F)F)(C2)C4)c2ncnn32)[C@@H](CN2CCOC[C@H]2C)CN1 [Compound 166, 1-(4-(difluoro(3-(trifluoromethyl)bicyclo[1.1.1]pentan-1-yl)methyl)-8,8-dimethyl-7,8-dihydro-6H-pyrrolo[2,3-e][1,2,4]triazolo[1,5-a]pyridin-6-yl)-2-((2R,5R)-5-methyl-2-(((R)-3-methylmorpholino)methyl)piperazin-1-yl)ethan-1-one] | 0.15 |  |
